Results reported in patent US4287189A, “O,S-Dialkyl O-oxysulfonylphenyl phosphorothiolates and phosphorodithioates” (priority 1980, dated 1981).
Values after ≈ are worked out from the molar mass of the structure shown.

Assays:
Corn rootworm larva = test: Southern corn rootworm larvae test, sprayed filter paper, 6 days; type: in vivo, Diabrotica undecimpunctata howardi; details: 144 h, lethal concentration at which 50% of the pests are killed
Excerpt: (§1) Diabrotica undecimpunctata howardi
(§2) A test solution containing 600 ppm of test compound is made by dissolving the test compound in a solvent (acetone:methanol, 1:1), adding surfactant and then water to give an acetone:methanol:water system of 10:10:80. A 1:1 mixture of an alkylarylpolyether-alcohol (commercially available under the trademark Triton X-155) and a modified phthalic glycerol alkyd resin (commercially available under the trademark Triton B-1956) can be utilized at the equivalent of one ounce per gallon of test solution as a surfactant.
(§3) For tests involving the southern corn rootworm ova and larvae, two layers of 4.25 cm. filter papers are placed in small, Petri dishes, and sprayed on the turntable with a 600 ppm solution of the test compound and air dried. About 100 eggs in about one milliliter of water are pipetted onto the filter paper and the dishes covered. These are held for 6 days and examined under the microscope. The percent kill values for ova and larvae are determined.

Boll weevil (BW) = test: Boll weevil test, sprayed jars with adult boll weevils, percent kill after 48 hours; type: in vivo; details: Anthonomus grandis, lethal concentration at which 50% of the pests are killed
Excerpt: as §2
For the boll weevil and house fly tests, half pint glass canning jars with a screened top are used. Food is supplied for the boll weevil (apple) and for the house fly (sugar water). The test insects consist of 10 adult boll weevils and 20 adult house flies. The jars containing the insects are sprayed using the turntable. The percent kill of boll weevil is determined 48 hours after the application. In the house fly test, a percent knockdown is determined one hour after application, the percent kill after 24 hours.

Green peach aphid (GPA) = test: Green peach aphid test, sprayed infested broccoli leaves, percent killed after 24 hours; type: in vivo; details: Myzus persicae, lethal concentration at which 50% of the pests are killed
Excerpt: as §2
(§4) For the mite test, infested bean (Phaseolus limeanus) leaf discs (1.25 inches in diameter) containing about 50 mites and for green peach aphid tests, infested broccoli (Brassica oleracea italica) leaves or portions thereof containing about 50 aphids are placed in a Petri dish lid on a moistened piece of cotton. The leaves are then sprayed with the test solution using a rotating turntable. They are held for 24 hours and then the percent killed is determined.

[1] = system: Two-spotted spider mite (TSM); test: Mite test, sprayed infested bean leaf discs, percent killed after 24 hours; type: in vivo; details: Tetranychus urticae, foliar, lethal concentration at which 50% of the pests are killed
Excerpt: Two-spotted spider mite
as §2, §4

Corn rootworm ova = test: Southern corn rootworm ova test, sprayed filter paper, 6 days; type: in vivo, Diabrotica undecimpunctata howardi; details: 144 h, lethal concentration at which 50% of the pests are killed
Excerpt: as §1, §2, §3

Mexican bean beetle (BB) = test: Bean beetle test, sprayed bean leaves infested with third instar larvae, percent killed after 48 hours; type: in vivo; details: Epilachna varivestis, lethal concentration at which 50% of the pests are killed
Excerpt: Mexican bean beetle (BB)
as §2
(§5) For the bean beetle and armyworm test, detached bean leaves on pieces of moistened filter paper are sprayed as above for the mite test in similar dishes and allowed to dry. One such dish is infested with 10 third instar Mexican bean beetle larvae, while another is infested with 10 third instar southern armyworm larvae. The dishes are covered. After holding for 48 hours, the percent killed is obtained.

Southern armyworm (AW) = test: Armyworm test, sprayed bean leaves infested with third instar larvae, percent killed after 48 hours; type: in vivo; details: Spodoptera eridania, lethal concentration at which 50% of the pests are killed
Excerpt: as §2, §5

Row | SMILES | LC50 (Corn rootworm larva) | LC50 (Boll weevil (BW)) | LC50 (Green peach aphid (GPA)) | LC50 [1] | LC50 (Corn rootworm ova) | LC50 (Mexican bean beetle (BB)) | LC50 (Southern armyworm (AW))
1 | CCCSP(=O)(OCC)Oc1ccc(S(=O)(=O)Oc2ccccc2)cc1 (centres unmarked) [Example II, O-Ethyl O-[4-(phenoxysulfonyl)phenyl]S-n-propyl phosphorothiolate] | 32 µg/mL (≈ 76.8 µM) | 345 µg/mL (≈ 828 µM) | 7.5 µg/mL (≈ 18 µM) | 9.8 µg/mL (≈ 23.5 µM) | > 600 µg/mL | 75 µg/mL (≈ 180 µM) | 32 µg/mL (≈ 76.8 µM)
2 | CCCSP(=O)(OCC)Oc1ccc(S(=O)(=O)Oc2ccc([N+](=O)[O-])cc2)cc1 (centres unmarked) [III, O-Ethyl-O-[4-(4'-nitrophenoxysulfonyl)phenyl]S-n-propyl phosphorothiolate] | 75 µg/mL (≈ 163 µM) | > 600 µg/mL | 6.2 µg/mL (≈ 13.4 µM) | 5 µg/mL (≈ 10.8 µM) | > 600 µg/mL | 75 µg/mL (≈ 163 µM) | 45 µg/mL (≈ 97.5 µM)
3 | CCCSP(=O)(OCC)Oc1ccc(S(=O)(=O)Oc2ccc(Cl)cc2)cc1 (centres unmarked) [IV, O-[4-(4'-chlorophenoxysulfonyl)phenyl]O-ethyl S-n-propyl phosphorothiolate] | 4.1 µg/mL (≈ 9.09 µM) | 138 µg/mL (≈ 306 µM) | 2.5 µg/mL (≈ 5.54 µM) | 2.9 µg/mL (≈ 6.43 µM) | 142 µg/mL (≈ 315 µM) | 75 µg/mL (≈ 166 µM) | 75 µg/mL (≈ 166 µM)
4 | CCOP(=O)(Oc1ccc(S(=O)(=O)Oc2ccccc2)cc1)SC(C)CC (centres unmarked) [IX, S-sec-Butyl O-ethyl O-[4-(phenoxysulfonyl)phenyl]phosphorothiolate] | 8.4 µg/mL (≈ 19.5 µM) | 75 µg/mL (≈ 174 µM) | 2.8 µg/mL (≈ 6.5 µM) | 5.8 µg/mL (≈ 13.5 µM) | 230 µg/mL (≈ 534 µM) | 15 µg/mL (≈ 34.8 µM) | 45 µg/mL (≈ 105 µM)
5 | CCCSP(=O)(OCC)Oc1ccc(S(=O)(=O)Oc2ccc(C#N)cc2)cc1 (centres unmarked) [VI, O-[4-(4'-cyanophenoxysulfonyl)phenyl]O-ethyl S-n-propyl phoshorothiolate] | 38 µg/mL (≈ 86.1 µM) | > 600 µg/mL | 18 µg/mL (≈ 40.8 µM) | 6.8 µg/mL (≈ 15.4 µM) | > 600 µg/mL | 49 µg/mL (≈ 111 µM) | 41 µg/mL (≈ 92.9 µM)
6 | CCCSP(=O)(OCC)Oc1ccc(S(=O)(=O)Oc2ccc(SC)cc2)cc1 (centres unmarked) [VII, O-Ethyl-O-[4-(4'-methylthiophenoxysulfonyl)phenyl]S-n-propyl phosphorothiolate] | 130 µg/mL (≈ 281 µM) | 550 µg/mL (≈ 1190 µM) | 6.4 µg/mL (≈ 13.8 µM) | 2.4 µg/mL (≈ 5.19 µM) | > 600 µg/mL | 162 µg/mL (≈ 350 µM) | 27 µg/mL (≈ 58.4 µM)
7 | CCCSP(=O)(OCC)Oc1ccc(S(=O)(=O)Oc2ccc(C)cc2)cc1 (centres unmarked) [VIII, O-Ethyl-O-[4-(4'-methylphenoxysulfonyl)phenyl]S-n-propyl phosphorothiolate] | 33 µg/mL (≈ 76.7 µM) | > 600 µg/mL | 7.5 µg/mL (≈ 17.4 µM) | 20 µg/mL (≈ 46.5 µM) | 550 µg/mL (≈ 1280 µM) | 150 µg/mL (≈ 348 µM) | 75 µg/mL (≈ 174 µM)
8 | CCOP(=O)(Oc1ccc(S(=O)(=O)Oc2ccccc2)cc1)SCC(C)C (centres unmarked) [XI, O-Ethyl S-isobutyl O-[4-(phenoxysulfonyl)phenyl]phosphorothiolate] | 142 µg/mL (≈ 330 µM) | 75 µg/mL (≈ 174 µM) | 1.3 µg/mL (≈ 3.02 µM) | 6.6 µg/mL (≈ 15.3 µM) | > 600 µg/mL | 26 µg/mL (≈ 60.4 µM) | 49 µg/mL (≈ 114 µM)
9 | CCCSP(=O)(OC)Oc1ccc(S(=O)(=O)Oc2ccc([N+](=O)[O-])cc2)cc1 (centres unmarked) [XII, O-Methyl O-[4-(4'-nitrophenoxysulfonyl)phenyl]S-n-propyl phosphorothiola] | 75 µg/mL (≈ 168 µM) | 500 µg/mL (≈ 1120 µM) | 26 µg/mL (≈ 58.1 µM) | 6.6 µg/mL (≈ 14.8 µM) | > 600 µg/mL | 54 µg/mL (≈ 121 µM) | 45 µg/mL (≈ 101 µM)
10 | CCCSP(=S)(OCC)Oc1ccc(S(=O)(=O)Oc2ccccc2)cc1 (centres unmarked) [XIII, O-Ethyl O-[4-(phenoxysulfonyl)phenyl]S-n-propyl phosphorodithiolate] | 10 µg/mL (≈ 23.1 µM) | 150 µg/mL (≈ 347 µM) | 38 µg/mL (≈ 87.9 µM) | 8 µg/mL (≈ 18.5 µM) | > 600 µg/mL | 150 µg/mL (≈ 347 µM) | 75 µg/mL (≈ 173 µM)
11 | CCCCSP(=O)(OCC)Oc1ccc(S(=O)(=O)Oc2ccccc2)cc1 (centres unmarked) [X] | 75 µg/mL (≈ 174 µM) | > 600 µg/mL | 8.6 µg/mL (≈ 20 µM) | 5 µg/mL (≈ 11.6 µM) | > 600 µg/mL | 27 µg/mL (≈ 62.7 µM) | 41 µg/mL (≈ 95.2 µM)
